Data reported in ChEMBL document CHEMBL3885881, “DrugMatrix”.

Species: Rattus norvegicus
Experiment: DrugMatrix - Regimen: Daily Repeat
Assay type: toxicity, organism-based, Sprague-Dawley
Design: regimen Daily Repeat, gender Male, age 6-8 weeks
Settings: in vivo, po, route oral GAVAGE, vehicle 100 % WATER; for BASOPHIL / EOSINOPHIL / ERYTHROCYTE COUNT / HEMATOCRIT / HEMOGLOBIN / LEUKOCYTE COUNT / LYMPHOCYTE / MEAN CORPUSCULAR HEMOGLOBIN / MEAN CORPUSCULAR HEMOGLOBIN CONCENTRATION / MEAN CORPUSCULAR VOLUME / MONOCYTE / NEUTROPHIL / PLATELET COUNT: tissue Blood; for ALANINE AMINOTRANSFERASE / ALBUMIN / ALKALINE PHOSPHATASE / ASPARTATE AMINOTRANSFERASE / BLOOD UREA NITROGEN / CHLORIDE / CHOLESTEROL / CREATINE PHOSPHOKINASE / CREATININE / GLUCOSE / PHOSPHORUS / POTASSIUM / SODIUM / TOTAL BILIRUBIN / TOTAL PROTEIN: tissue Plasma
[1] = 0 mg/kg, 72 h, dose level Control, time 3 day
[2] = 0 mg/kg, 120 h, dose level Control, time 5 day
[3] = 10 mg/kg, 72 h, dose level Low, time 3 day
[4] = 10 mg/kg, 120 h, dose level Low, time 5 day
[5] = 1500 mg/kg, 72 h, dose level High, time 3 day
[6] = 1500 mg/kg, 120 h, dose level High, time 5 day

For `O=C(O)c1cc(=O)c2c(OCC(O)COc3cccc4oc(C(=O)O)cc(=O)c34)cccc2o1` [CROMOLYN], the BASOPHIL [1] was 0%, the EOSINOPHIL [1] was 0.33% and the “ERYTHROCYTE COUNT” value [1] was 5.88 x10E6/uL. The HEMATOCRIT [1] was 36.47%, the HEMOGLOBIN [1] was 14.2 G/DL and the “LEUKOCYTE COUNT” value [1] was 9.28 x10E3/uL. The LYMPHOCYTE [1] was 82.33%, the “MEAN CORPUSCULAR HEMOGLOBIN” value [1] was 24.2 pg and the “MEAN CORPUSCULAR HEMOGLOBIN CONCENTRATION” value [1] was 38.97 G/DL. For the same compound, the “MEAN CORPUSCULAR VOLUME” value [1] was 62.12 fL, the MONOCYTE [1] was 2.33% and the NEUTROPHIL [1] was 15%. For the same compound, the “PLATELET COUNT” value [1] was 1114 x10E3/uL, the “ALANINE AMINOTRANSFERASE” value [1] was 41.17 u/L and the ALBUMIN [1] was 3.95 G/DL. For the same compound, the “ALKALINE PHOSPHATASE” value [1] was 382.5 u/L, the “ASPARTATE AMINOTRANSFERASE” value [1] was 67.33 u/L and the “BLOOD UREA NITROGEN” value [1] was 15.5 mg/dL. For the same compound, the CHLORIDE [1] was 106.33 MEQ/L, the CHOLESTEROL [1] was 77.67 mg/dL and the “CREATINE PHOSPHOKINASE” value [1] was 123.33 u/L. The CREATININE [1] was 0.62 mg/dL, the GLUCOSE [1] was 185.67 mg/dL and the PHOSPHORUS [1] was 10.2 mg/dL. For the same compound, the POTASSIUM [1] was 6.72 MEQ/L, the SODIUM [1] was 149.67 MEQ/L and the “TOTAL BILIRUBIN” value [1] was 0.97 mg/dL. The “TOTAL PROTEIN” value [1] was 6.58 G/DL, the BASOPHIL [2] was 0% and the EOSINOPHIL [2] was 0%. For the same compound, the “ERYTHROCYTE COUNT” value [2] was 5.99 x10E6/uL, the HEMATOCRIT [2] was 36.88% and the HEMOGLOBIN [2] was 14.77 G/DL. The “LEUKOCYTE COUNT” value [2] was 11.35 x10E3/uL, the LYMPHOCYTE [2] was 85.5% and the “MEAN CORPUSCULAR HEMOGLOBIN” value [2] was 24.7 pg. The “MEAN CORPUSCULAR HEMOGLOBIN CONCENTRATION” value [2] was 40.07 G/DL, the “MEAN CORPUSCULAR VOLUME” value [2] was 61.58 fL and the MONOCYTE [2] was 1.83%. For the same compound, the NEUTROPHIL [2] was 12.67%, the “PLATELET COUNT” value [2] was 979.67 x10E3/uL and the “ALANINE AMINOTRANSFERASE” value [2] was 36.5 u/L. For the same compound, the ALBUMIN [2] was 3.63 G/DL, the “ALKALINE PHOSPHATASE” value [2] was 303.5 u/L and the “ASPARTATE AMINOTRANSFERASE” value [2] was 61 u/L. For the same compound, the “BLOOD UREA NITROGEN” value [2] was 16.5 mg/dL, the CHLORIDE [2] was 106.17 MEQ/L and the CHOLESTEROL [2] was 60.5 mg/dL. For the same compound, the “CREATINE PHOSPHOKINASE” value [2] was 154.83 u/L, the CREATININE [2] was 0.6 mg/dL and the GLUCOSE [2] was 201 mg/dL. For the same compound, the PHOSPHORUS [2] was 10.1 mg/dL, the POTASSIUM [2] was 6.85 MEQ/L and the SODIUM [2] was 148.17 MEQ/L. The “TOTAL BILIRUBIN” value [2] was 0.58 mg/dL, the “TOTAL PROTEIN” value [2] was 5.9 G/DL and the BASOPHIL [3] was 0%. The EOSINOPHIL [3] was 0%, the “ERYTHROCYTE COUNT” value [3] was 5.62 x10E6/uL and the HEMATOCRIT [3] was 34.93%. The HEMOGLOBIN [3] was 13.6 G/DL, the “LEUKOCYTE COUNT” value [3] was 10.7 x10E3/uL and the LYMPHOCYTE [3] was 79%. The “MEAN CORPUSCULAR HEMOGLOBIN” value [3] was 24.23 pg, the “MEAN CORPUSCULAR HEMOGLOBIN CONCENTRATION” value [3] was 38.93 G/DL and the “MEAN CORPUSCULAR VOLUME” value [3] was 62.2 fL. For the same compound, the MONOCYTE [3] was 2.33%, the NEUTROPHIL [3] was 18.67% and the “PLATELET COUNT” value [3] was 1007 x10E3/uL. For the same compound, the “ALANINE AMINOTRANSFERASE” value [3] was 38.67 u/L, the ALBUMIN [3] was 3.87 G/DL and the “ALKALINE PHOSPHATASE” value [3] was 381.33 u/L. The “ASPARTATE AMINOTRANSFERASE” value [3] was 60.67 u/L, the “BLOOD UREA NITROGEN” value [3] was 13 mg/dL and the CHLORIDE [3] was 107.33 MEQ/L. The CHOLESTEROL [3] was 71.67 mg/dL, the “CREATINE PHOSPHOKINASE” value [3] was 119.67 u/L and the CREATININE [3] was 0.6 mg/dL. It also gave a GLUCOSE [3] of 182 mg/dL, a PHOSPHORUS [3] of 10.4 mg/dL and a POTASSIUM [3] of 6.6 MEQ/L. For the same compound, the SODIUM [3] was 150.33 MEQ/L, the “TOTAL BILIRUBIN” value [3] was 0.8 mg/dL and the “TOTAL PROTEIN” value [3] was 6.33 G/DL. The BASOPHIL [4] was 0%, the EOSINOPHIL [4] was 0.33% and the “ERYTHROCYTE COUNT” value [4] was 5.82 x10E6/uL. The HEMATOCRIT [4] was 35.37%, the HEMOGLOBIN [4] was 14.43 G/DL and the “LEUKOCYTE COUNT” value [4] was 10.43 x10E3/uL. For the same compound, the LYMPHOCYTE [4] was 85%, the “MEAN CORPUSCULAR HEMOGLOBIN” value [4] was 24.83 pg and the “MEAN CORPUSCULAR HEMOGLOBIN CONCENTRATION” value [4] was 40.83 G/DL. For the same compound, the “MEAN CORPUSCULAR VOLUME” value [4] was 60.73 fL, the MONOCYTE [4] was 2.33% and the NEUTROPHIL [4] was 12.33%. The “PLATELET COUNT” value [4] was 932 x10E3/uL, the “ALANINE AMINOTRANSFERASE” value [4] was 38 u/L and the ALBUMIN [4] was 3.73 G/DL. The “ALKALINE PHOSPHATASE” value [4] was 274 u/L, the “ASPARTATE AMINOTRANSFERASE” value [4] was 62.33 u/L and the “BLOOD UREA NITROGEN” value [4] was 13.33 mg/dL. For the same compound, the CHLORIDE [4] was 109 MEQ/L, the CHOLESTEROL [4] was 60.33 mg/dL and the “CREATINE PHOSPHOKINASE” value [4] was 101.67 u/L. The CREATININE [4] was 0.73 mg/dL, the GLUCOSE [4] was 167.33 mg/dL and the PHOSPHORUS [4] was 9.73 mg/dL. The POTASSIUM [4] was 6.7 MEQ/L, the SODIUM [4] was 151.33 MEQ/L and the “TOTAL BILIRUBIN” value [4] was 0.67 mg/dL. For the same compound, the “TOTAL PROTEIN” value [4] was 5.87 G/DL, the BASOPHIL [5] was 0% and the EOSINOPHIL [5] was 0.33%. For the same compound, the “ERYTHROCYTE COUNT” value [5] was 5.31 x10E6/uL, the HEMATOCRIT [5] was 33.07% and the HEMOGLOBIN [5] was 13.3 G/DL. For the same compound, the “LEUKOCYTE COUNT” value [5] was 10.3 x10E3/uL, the LYMPHOCYTE [5] was 79.67% and the “MEAN CORPUSCULAR HEMOGLOBIN” value [5] was 25.1 pg. For the same compound, the “MEAN CORPUSCULAR HEMOGLOBIN CONCENTRATION” value [5] was 40.3 G/DL, the “MEAN CORPUSCULAR VOLUME” value [5] was 62.23 fL and the MONOCYTE [5] was 1%. The NEUTROPHIL [5] was 18.67%, the “PLATELET COUNT” value [5] was 969.67 x10E3/uL and the “ALANINE AMINOTRANSFERASE” value [5] was 36 u/L. The ALBUMIN [5] was 3.9 G/DL, the “ALKALINE PHOSPHATASE” value [5] was 383.5 u/L and the “ASPARTATE AMINOTRANSFERASE” value [5] was 60 u/L. For the same compound, the “BLOOD UREA NITROGEN” value [5] was 13 mg/dL, the CHLORIDE [5] was 106 MEQ/L and the CHOLESTEROL [5] was 72 mg/dL. The “CREATINE PHOSPHOKINASE” value [5] was 122 u/L, the CREATININE [5] was 0.5 mg/dL and the GLUCOSE [5] was 179 mg/dL. For the same compound, the PHOSPHORUS [5] was 9.8 mg/dL, the POTASSIUM [5] was 6.7 MEQ/L and the SODIUM [5] was 150 MEQ/L. For the same compound, the “TOTAL BILIRUBIN” value [5] was 0.5 mg/dL, the “TOTAL PROTEIN” value [5] was 6.25 G/DL and the BASOPHIL [6] was 0%. The EOSINOPHIL [6] was 0%, the “ERYTHROCYTE COUNT” value [6] was 6.38 x10E6/uL and the HEMATOCRIT [6] was 37.77%. For the same compound, the HEMOGLOBIN [6] was 14.93 G/DL, the “LEUKOCYTE COUNT” value [6] was 13.03 x10E3/uL and the LYMPHOCYTE [6] was 83.33%. For the same compound, the “MEAN CORPUSCULAR HEMOGLOBIN” value [6] was 23.43 pg, the “MEAN CORPUSCULAR HEMOGLOBIN CONCENTRATION” value [6] was 39.57 G/DL and the “MEAN CORPUSCULAR VOLUME” value [6] was 59.27 fL. The MONOCYTE [6] was 0.67%, the NEUTROPHIL [6] was 16% and the “PLATELET COUNT” value [6] was 1070.67 x10E3/uL. The “ALANINE AMINOTRANSFERASE” value [6] was 36.33 u/L, the ALBUMIN [6] was 3.77 G/DL and the “ALKALINE PHOSPHATASE” value [6] was 352 u/L. The “ASPARTATE AMINOTRANSFERASE” value [6] was 63 u/L, the “BLOOD UREA NITROGEN” value [6] was 15.33 mg/dL and the CHLORIDE [6] was 106 MEQ/L. For the same compound, the CHOLESTEROL [6] was 50.67 mg/dL, the “CREATINE PHOSPHOKINASE” value [6] was 125.33 u/L and the CREATININE [6] was 0.63 mg/dL. The GLUCOSE [6] was 177.67 mg/dL, the PHOSPHORUS [6] was 10.5 mg/dL and the POTASSIUM [6] was 7.1 MEQ/L. The SODIUM [6] was 150 MEQ/L, the “TOTAL BILIRUBIN” value [6] was 0.57 mg/dL and the “TOTAL PROTEIN” value [6] was 6.13 G/DL.
